Assay results from patent US10040783B2 (Emory University, priority 2011, dated 2018).
Like-named read-outs stand apart in the source and are kept apart here.

Experiments:
EP2 receptor = EP2 receptor (Homo sapiens, UniProt P43116); test: Schild regression of PGE2-induced EP2 activation in C6G-EP2 cells; format: cell-based; design: expressed in transfected cells; host or cells: C6G-EP2 cells
Experimental: (§1) Information on the modality of antagonism can be obtained by performing Schild regression analysis characterized by: log (dr−1)=log XB−log KB. In the equation, dose ratio (dr)=fold shift in EC50, XB=[antagonist], KB=equilibrium dissociation constant for the antagonist-receptor complex. […] Thus, a lower KB value indicates a higher inhibitory potency.
To perform the Schild regression, C6G-EP2 cells were incubated first with vehicle, 0.01, 0.1 or 1 μM of test compound for 5 minutes, then with increasing concentrations of PGE2 to activate the EP2 receptor.

human DP1 receptors = biological target: T1, human DP1 receptors (Homo sapiens, UniProt Q13258); test: DP1 assay: BW245C-induced cAMP, TR-FRET, in C6G cells expressing DP1; format: cell-based; details: agonist BW245C
T1 construct: expressed in transfected cells
T1 sequence (Q13258 1-359): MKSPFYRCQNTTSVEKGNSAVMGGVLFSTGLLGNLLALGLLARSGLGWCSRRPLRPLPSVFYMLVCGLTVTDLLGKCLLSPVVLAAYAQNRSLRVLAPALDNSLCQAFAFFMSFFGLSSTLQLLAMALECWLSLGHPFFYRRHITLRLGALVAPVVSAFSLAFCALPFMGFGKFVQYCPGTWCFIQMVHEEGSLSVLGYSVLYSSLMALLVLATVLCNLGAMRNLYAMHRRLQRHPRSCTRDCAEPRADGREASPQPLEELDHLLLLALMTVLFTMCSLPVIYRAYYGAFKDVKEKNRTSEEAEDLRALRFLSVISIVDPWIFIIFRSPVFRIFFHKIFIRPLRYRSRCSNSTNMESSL
Experimental: DP1 Assay Both DP1 and EP2 receptors are positively coupled through Gαs to cAMP production and conduct very similar physiological and pathological events. Among the eight canonical prostanoid receptors, DP1 has similarities to EP2 at both protein and DNA level. C6G cells that stably expressing human DP1 receptors were seeded into 384-well plates in 30 μL complete medium (4,000 cells per well) and grown overnight. The medium was thoroughly withdrawn and 10 μL HBSS (HyClone) plus 20 μM rolipram were added into the wells to block phosphodiesterase. […] The cells were lysed in 10 μL lysis buffer containing the FRET acceptor cAMP-d2 and 1 min later another 10 μL lysis buffer with anti-cAMP-Cryptate was added. […] The FRET signal is expressed as F665/[…].

C6G cells = test: CellTiter-Glo luminescent cell viability assay (cytotoxicity)
in vitro = details: rat, C6G cells
EP4 receptor = EP4 receptor (Homo sapiens, UniProt P35408); test: Schild regression analysis for EP4 receptor; format: cell-based; details: for Kb: read-out: KB (μM) EP4, from Schild regression analysis
Description: as §1

[1] = system: rat primary hippocampal cultures; test: NMDA-induced LDH release (excitotoxicity) in primary hippocampal cultures; format: cell-based; details: 10 μM compound, NMDA 30 μM plus glycine 10 μM overnight; for activity at 10 µM: Rattus norvegicus, read-out: NMDA-induced LDH release, % of control
Description: Excitotoxicity caused by NMDA receptor activation is recognized to induce neuronal apoptosis both in vitro and in vivo in cortical neurons. NMDA receptor activation can, via COX-2, cause prostaglandin production, including PGE2. Activation of the EP2 receptor by PGE2 in microglia can promote neuroinflammation in several models of neurodegenerative diseases. The effect of EP2 antagonist compounds were examined on NMDA-induced excitotoxicity. Rat primary hippocampal cultures (DIV13-15) were preincubated with vehicle or increasing concentrations of test compound for 15-20 min, followed by treatment with NMDA (30 μM) plus glycine (10 μM) overnight in continued presence of the test compound. Lactate dehydrogenase (LDH) release was used as the measure of neuronal injury.

[2] = additional compounds tables, read-out: EP2 KB
[3] = C6G-EP2 cells, PGE2 as agonist, read-out: KB (nM) EP2, from Schild regression analysis

Sequence of EP2 receptor (P43116 whole entry): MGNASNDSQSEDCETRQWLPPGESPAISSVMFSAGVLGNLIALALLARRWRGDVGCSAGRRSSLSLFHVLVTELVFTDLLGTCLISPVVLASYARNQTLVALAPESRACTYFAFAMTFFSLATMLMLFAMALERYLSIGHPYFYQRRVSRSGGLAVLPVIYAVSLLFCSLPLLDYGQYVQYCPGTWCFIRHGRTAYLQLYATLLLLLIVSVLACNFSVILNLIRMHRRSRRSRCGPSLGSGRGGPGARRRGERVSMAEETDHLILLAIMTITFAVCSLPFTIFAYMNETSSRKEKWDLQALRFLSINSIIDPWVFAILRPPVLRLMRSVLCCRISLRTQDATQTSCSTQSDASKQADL
Sequence of EP4 receptor (P35408 whole entry): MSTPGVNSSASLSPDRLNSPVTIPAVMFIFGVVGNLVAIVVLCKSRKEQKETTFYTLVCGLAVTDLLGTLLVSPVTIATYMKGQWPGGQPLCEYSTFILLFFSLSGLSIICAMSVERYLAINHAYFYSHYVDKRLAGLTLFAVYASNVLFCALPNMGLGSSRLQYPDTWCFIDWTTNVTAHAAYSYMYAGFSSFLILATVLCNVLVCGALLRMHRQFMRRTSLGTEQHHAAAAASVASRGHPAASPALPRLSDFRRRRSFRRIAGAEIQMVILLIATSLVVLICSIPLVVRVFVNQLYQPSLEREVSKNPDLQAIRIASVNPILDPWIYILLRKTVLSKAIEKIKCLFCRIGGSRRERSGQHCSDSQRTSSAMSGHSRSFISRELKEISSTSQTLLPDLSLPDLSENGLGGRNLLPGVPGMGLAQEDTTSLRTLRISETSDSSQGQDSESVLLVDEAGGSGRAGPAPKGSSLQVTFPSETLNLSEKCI

Kb (EP2 receptor; [3]) [nM] | Selective index, KB EP4/KB EP2 (EP4 receptor) | Kb (EP4 receptor) [µM] | Structure (SMILES) | Therapeutic index (in vitro), CC50/KB for EP2 (C6G cells) | CC50 at 48 h (in vitro) [µM] | other results
 |  |  | COc1cc(/C=C/C(=O)NCCc2c(C)[nH]c3ccccc23)cc(OC)c1OC [TG7-74] |  |  | Kb (EP2 receptor; [2]): 2.9 nM; Kb (human DP1 receptors): 0.112 µM
 |  |  | Cc1cc(/C=C/C(=O)NCCn2c(C)cc3ccccc32)cc(C)c1F [TG7-98, 3-(4-fluoro-3,5-dimethylphenyl)-N-(2-(2-methyl-1H-indol-1-yl)ethyl)acrylamide] |  |  | Kb (EP2 receptor; [2]): 4.4 nM; Kb (human DP1 receptors): 0.745 µM
 |  |  | CC(=O)Nc1ccc(C(=O)NCCn2c(C)cc3ccccc32)cc1 [TG7-117, 4-acetamido-N-(2-(2-methyl-1H-indol-1-yl)ethyl)benzamide] |  |  | Kb (EP2 receptor; [2]): 83 nM; Kb (human DP1 receptors): 5.83 µM
18.7 | 921 | 17.2 | Cc1cc2ccccc2n1CCNC(=O)C=Cc1cc(F)c(F)c(F)c1 [1t, N-(2-(2-methyl-1H-indol-1-yl)ethyl)-3-(3,4,5-trifluorophenyl)acrylamide] | 2,460 | 46 | 
947 | 14 | 13.3 | COc1ccc(C=CC(=O)NCCn2c(C)nc3ccccc32)cc1OC [1b, 3-(3,4-dimethoxyphenyl)-N-(2-(2-methyl-1H-benzo[d]imidazol-1-yl)ethyl)acrylamide] | 473 | 448 | 
2.1 | 2,600 | 5.4 | COc1cc(C=CC(=O)NCCn2c(C)cc3cc(F)ccc32)cc(OC)c1OC [1f, N-(2-(5-fluoro-2-methyl-1H-indol-1-yl)ethyl)-3-(3,4,5-trimethoxyphenyl)acrylamide] | 73,800 | 155 | activity at 10 µM [1]: 38.5%
1860 | 3 | 5.7 | COc1cc(C=CC(=O)NCCCn2c(C)cc3ccccc32)cc(OC)c1OC [1j, N-(3-(2-methyl-1H-indol-1-yl)propyl)-3-(3,4,5-trimethoxyphenyl)acrylamide] | 98 | 182 | 
82.4 | 367 | 30.2 | Cc1cc2ccccc2n1CCNC(=O)C=Cc1ccc(CC(C)C)cc1 [1q, 3-(4-isobutylphenyl)-N-(2-(2-methyl-1H-indol-1-yl)ethyl)acrylamide] | 2,420 | 199 | 
 |  |  | COc1ccc(C(=O)NCCn2c(C)cc3ccccc32)cc1OC [TG7-112-2, 3,4-dimethoxy-N-(2-(2-methyl-1H-indol-1-yl)ethyl)benzamide] |  |  | Kb (human DP1 receptors): 1.43 µM
8 | 859 | 6.9 | COc1cc(OC)c(C=CC(=O)NCCn2c(C)cc3ccccc32)cc1Br [1y, 3-(5-bromo-2,4-dimethoxyphenyl)-N-(2-(2-methyl-1H-indol-1-yl)ethyl)acrylamide] | 155,000 | 1240 | 
1490 | 10 | 15.3 | Cc1nc2ccccc2n1CCNC(=O)C=Cc1ccc2c(c1)OCO2 [1c, 3-(benzo[d][1,3]dioxol-5-yl)-N-(2-(2-methyl-1H-benzo[d]imidazol-1-yl)ethyl)acrylamide] | 219 | 325 | 
185 | 90 | 16.6 | COc1cc(C=CC(=O)N(C)CCn2c(C)cc3ccccc32)cc(OC)c1OC [1k, N-methyl-N-(2-(2-methyl-1H-indol-1-yl)ethyl)-3-(3,4,5-trimethoxyphenyl)acrylamide] | 1,500 | 278 | 
22.2 | 77 | 1.7 | COc1ccc(C=CC(=O)NCCn2c(C)cc3cc(F)ccc32)cc1OC [1g, 3-(3,4-dimethoxyphenyl)-N-(2-(5-fluoro-2-methyl-1H-indol-1-yl)ethyl)acrylamide] | 11,900 | 264 | 
7 | 1,990 | 13.9 | Cc1cc2cc(F)ccc2n1CCNC(=O)C=Cc1ccc(F)c(F)c1 [1s, 3-(3,4-difluorophenyl)-N-(2-(5-fluoro-2-methyl-1H-indol-1-yl)ethyl)acrylamide] | 97,700 | 684 | 
 |  |  | COc1ccc(/C=C/C(=O)NCCc2c(C)[nH]c3ccccc23)cc1OC [TG7-76] |  |  | Kb (EP2 receptor; [2]): 6 nM; Kb (human DP1 receptors): 0.227 µM
1.9 | 2,470 | 4.7 | COc1ccc(/C=C/C(=O)NCCn2c(C)cc3ccccc32)cc1Cl [1w] | 253,000 | 481 | activity at 10 µM [1]: 78.4%
2520 | 6 | 13.9 | COc1cc(C=CC(=O)NCCn2cnc3ccccc32)cc(OC)c1OC [1d, N-(2-(1H-benzo[d]imidazol-1-yl)ethyl)-3-(3,4,5-trimethoxyphenyl)acrylamide] | 123 | 311 | 
6.3 | 525 | 3.3 | COc1ccc(/C=C/C(=O)NCCn2c(C)cc3cc(F)ccc32)cc1Cl [1x] | 95,400 | 601 | 
 |  | 18.9 | COc1cc(/C=C/C(=O)NCCN2CCCCC2C)cc(OC)c1OC (stereo not shown) [1e] |  |  | KB (nM) EP2, from Schild regression analysis (EP2 receptor; C6G-EP2 cells, PGE2 as agonist): Inactive; CC50 (C6G cells; read-out: CC50, half maximal cytotoxic concentration, C6G cells after 48 h incubation): 316 µM; NMDA-induced LDH release, % of control [1]: did not show any effect and not
348 | 39 | 13.7 | COc1cc(C=CC(=O)NCCn2c(C)nc3ccccc32)cc(OC)c1OC [1a, N-(2-(2-methyl-1H-benzo[d]imidazol-1-yl)ethyl)-3-(3,4,5-trimethoxyphenyl)acrylamide] | 1,030 | 360 | 
4.6 | 435 | 2 | COc1ccc(C=CC(=O)NCCn2c(C)cc3ccccc32)cc1OC [A2, 3-(3,4-dimethoxyphenyl)-N-(2-(2-methyl-1H-indol-1-yl)ethyl)acrylamide] | 86,300 | 397 | Schild plot slope (EP2 receptor; C6G-EP2 cells, PGE2): 1.1; Modality of antagonism on EP2 receptor (EP2 receptor; Schild plots): competitive antagonism; activity at 10 µM [1]: 77.8%
7.2 | 268 | 1.9 | CCOc1ccc(C=CC(=O)NCCn2c(C)cc3ccccc32)cc1OC [1p, 3-(4-ethoxy-3-methoxyphenyl)-N-(2-(2-methyl-1H-indol-1-yl)ethyl)acrylamide] | 71,800 | 517 | 

Structure (SMILES) | Kb (EP2 receptor; [3]) [nM] | Selective index, KB EP4/KB EP2 (EP4 receptor) | Kb (EP4 receptor) [µM] | Therapeutic index (in vitro), CC50/KB for EP2 (C6G cells) | CC50 at 48 h (in vitro) [µM] | other results
COc1ccc(C=CC(=O)NCCn2c(C)cc3ccccc32)cc1 [1m, 3-(4-methoxyphenyl)-N-(2-(2-methyl-1H-indol-1-yl)ethyl)acrylamide] | 16.5 | 484 | 8 | 187,000 | 3090 | 
